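A five-concentration, 48-hour dose response in 96-well plates underlies each endpoint, interpolated linearly between surrounding concentrations. At the GI50, growth is halved.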 Activity calls are given as the source filed them. Cut-off read from the data, not from the text of the source: active = GI50 up to about 1.1 µM and inactive = higher.
Key:
Assay in all cases: NCI tumour cell line growth inhibition, 48 h
A549 = tested on: A549
CAKI-1 = tested on: CAKI-1
EKVX = tested on: EKVX
HL-60 = tested on: HL-60
Hs-578T = tested on: Hs-578T
K562 = tested on: K562
LOX IMVI = tested on: LOX IMVI
MDA-N = tested on: MDA-N
NCI-H23 = tested on: NCI-H23
NCI-H522 = tested on: NCI-H522
NCI/ADR-RES = tested on: NCI/ADR-RES
OVCAR-4 = tested on: OVCAR-4
PC-3 = tested on: PC-3
RXF 393 = tested on: RXF 393
SF-295 = tested on: SF-295
SF-539 = tested on: SF-539
SK-MEL-28 = tested on: SK-MEL-28
SR = tested on: SR
UACC-257 = tested on: UACC-257

SMILES	GI50 (A549)	GI50 (CAKI-1)	GI50 (EKVX)	GI50 (HL-60)	GI50 (Hs-578T)	GI50 (K562)	GI50 (LOX IMVI)	GI50 (MDA-N)	GI50 (NCI-H23)	GI50 (NCI-H522)	GI50 (NCI/ADR-RES)	GI50 (OVCAR-4)	GI50 (PC-3)	GI50 (RXF 393)	GI50 (SF-295)	GI50 (SF-539)	GI50 (SK-MEL-28)	GI50 (SR)	GI50 (UACC-257)
N#CC(NCCO)=C1C(=O)c2ccccc2C1=O	> 100 µM (inactive)	> 100 µM (inactive)	> 100 µM (inactive)	> 100 µM (inactive)	> 100 µM (inactive)	> 100 µM (inactive)	> 100 µM (inactive)	> 100 µM (inactive)	> 100 µM (inactive)	> 100 µM (inactive)	> 100 µM (inactive)	> 100 µM (inactive)	> 100 µM (inactive)	> 100 µM (inactive)	> 100 µM (inactive)	> 100 µM (inactive)	> 100 µM (inactive)	> 100 µM (inactive)	> 100 µM (inactive)
COC(=O)C1=NN2c3ccccc3CN([C@@H](C)c3ccccc3)C(=O)[C@@H]2[C@H]1c1ccccc1	> 100 µM (inactive)	> 100 µM (inactive)	> 100 µM (inactive)	> 100 µM (inactive)	> 100 µM (inactive)	13.3 µM (inactive)	> 100 µM (inactive)	> 100 µM (inactive)	> 100 µM (inactive)	43.4 µM (inactive)	32.1 µM (inactive)	> 100 µM (inactive)	21.3 µM (inactive)	> 100 µM (inactive)	> 100 µM (inactive)	> 100 µM (inactive)	> 100 µM (inactive)	63 µM (inactive)	> 100 µM (inactive)
OC1[C@H](O)CN(OCc2ccccc2)C[C@@H]1O (stereo not given in full)	> 100 µM (inactive)	> 100 µM (inactive)	> 100 µM (inactive)	> 100 µM (inactive)	> 100 µM (inactive)	> 100 µM (inactive)	> 100 µM (inactive)	> 100 µM (inactive)	> 100 µM (inactive)	> 100 µM (inactive)	> 100 µM (inactive)	> 100 µM (inactive)	> 100 µM (inactive)	> 100 µM (inactive)	> 100 µM (inactive)	> 100 µM (inactive)	> 100 µM (inactive)	> 100 µM (inactive)	> 100 µM (inactive)
CNC1C(O)C(NC)C2OC3(O)C(=O)CC(C)OC3OC2C1O (stereo not given)	> 100 µM (inactive)	> 100 µM (inactive)	> 100 µM (inactive)	> 100 µM (inactive)	> 100 µM (inactive)	> 100 µM (inactive)	> 100 µM (inactive)	> 100 µM (inactive)	> 100 µM (inactive)	> 100 µM (inactive)	> 100 µM (inactive)	> 100 µM (inactive)	> 100 µM (inactive)	> 100 µM (inactive)	> 100 µM (inactive)	> 100 µM (inactive)	> 100 µM (inactive)	> 100 µM (inactive)	> 100 µM (inactive)
CC(=O)C1=C(C)N(c2ccccc2)C2(O)C3=C(C(=O)c4ccccc4C3=O)C(O)=CC12Cl (stereo not given)	7.29 µM (inactive)	4.05 µM (inactive)	8.51 µM (inactive)	2.9 µM (inactive)	4.01 µM (inactive)	6.04 µM (inactive)	3.56 µM (inactive)	2.94 µM (inactive)	6.55 µM (inactive)	2.55 µM (inactive)	3.73 µM (inactive)	3.08 µM (inactive)	7.28 µM (inactive)	5.85 µM (inactive)	11.1 µM (inactive)	4.09 µM (inactive)	6.73 µM (inactive)	2.42 µM (inactive)	4.71 µM (inactive)
CCN(CC)C(=S)N/N=C(/C)c1cccc(/C(C)=N\NC(=S)N(CC)CC)n1	2.86 µM (inactive)	1.29 µM (inactive)	2.64 µM (inactive)	0.055 µM (active)	5.64 µM (inactive)	2.67 µM (inactive)	1.81 µM (inactive)	6.37 µM (inactive)	3.44 µM (inactive)	3.23 µM (inactive)	2 µM (inactive)	1.25 µM (inactive)	3.15 µM (inactive)	2.3 µM (inactive)	1.66 µM (inactive)	1.37 µM (inactive)	1.21 µM (inactive)	0.32 µM (active)	2.2 µM (inactive)
N#Cc1nc(C#N)c(N)[nH]1	> 100 µM (inactive)	> 100 µM (inactive)	> 100 µM (inactive)	> 100 µM (inactive)	> 100 µM (inactive)	> 100 µM (inactive)	> 100 µM (inactive)	> 100 µM (inactive)	> 100 µM (inactive)	> 100 µM (inactive)	> 100 µM (inactive)	> 100 µM (inactive)	> 100 µM (inactive)	> 100 µM (inactive)	> 100 µM (inactive)	> 100 µM (inactive)	> 100 µM (inactive)	> 100 µM (inactive)	> 100 µM (inactive)
CC(C)(C)OC(=O)c1ccc(NCC2=CC(=O)C=CC2=O)cc1	18.1 µM (inactive)	1.48 µM (inactive)	14.8 µM (inactive)	1.03 µM (active)	15.7 µM (inactive)	2.75 µM (inactive)	10.7 µM (inactive)	12.5 µM (inactive)	8.61 µM (inactive)	1.63 µM (inactive)	8.93 µM (inactive)	8.85 µM (inactive)	12 µM (inactive)	11.4 µM (inactive)	23 µM (inactive)	5.52 µM (inactive)	15.6 µM (inactive)	2.47 µM (inactive)	12.3 µM (inactive)
O=C(NN1CCCCC1)c1cc2cc(CCl)ccc2oc1=O	19.6 µM (inactive)	18.1 µM (inactive)	14.2 µM (inactive)	16.5 µM (inactive)	16.3 µM (inactive)	16.7 µM (inactive)	18.5 µM (inactive)	15.7 µM (inactive)	16.5 µM (inactive)	8.75 µM (inactive)	23.1 µM (inactive)	18.4 µM (inactive)	14.8 µM (inactive)	18.5 µM (inactive)	20.1 µM (inactive)	27.4 µM (inactive)	29.3 µM (inactive)	21.2 µM (inactive)	21.6 µM (inactive)
COC(=O)C1=C(O)C(C(=O)OC)[C@@]2(O)[C@@H](C(=O)OC)C(c3ccc(OC(=O)/C=C/c4ccccc4)cc3)C[C@@H]1[C@@H]2C(=O)OC (stereo not given in full)	12.6 µM (inactive)	7.36 µM (inactive)	12.3 µM (inactive)	4.55 µM (inactive)	68.4 µM (inactive)	5.79 µM (inactive)	2.31 µM (inactive)	3.24 µM (inactive)	13.3 µM (inactive)	5.3 µM (inactive)	8.41 µM (inactive)	6.18 µM (inactive)	6.84 µM (inactive)	3.06 µM (inactive)	23.9 µM (inactive)	3.43 µM (inactive)	20 µM (inactive)	3.02 µM (inactive)	7.23 µM (inactive)

— ChEMBL document CHEMBL1201862, “PubChem BioAssay data set” (2004)
